Patent US5334728A (The Trustees of The University of Pennsylvania, priority 1992, dated 1994)
Where “and” joins values, the source holds several entries; their conditions need not be identical. Identical values can stand only once.

Experiments:
[1] = target: T1, dopamine D-2 receptor (Rattus norvegicus, UniProt P61169); experiment: Saturation binding of [^125 I]IBF to rat striatal homogenate in vitro
T1 construct: Striatal tissues were excised, pooled and homogenized in 100 volumes (w/v) of ice-cold Tris-HCl buffer; from tissue; host or cells: rat striatum (male Sprague-Dawley), twice-centrifuged membrane homogenate
Description: (§1) Male Sprague-Dawley rats (200-250 g) were decapitated, and the brains were removed and placed in ice. Striatal tissues were excised, pooled and homogenized in 100 volumes (w/v) of ice-cold Tris-HCl buffer (50 mM), pH 7.4. The homogenates were centrifuged at 20,000× g for 20 min. The resultant pellets were rehomogenized in the same buffer and centrifuged again. The final pellets were resuspended in assay buffer containing: 50 mM Tris buffer pH 7.4, 120 mM NaCl, 5 mM KCl, 2 mM CaCl2 and 1 mM MgCl2 and kept at -20° C. for the following binding assay.
(§2) The binding assays were performed by incubating 50 μl of tissue preparations containing 40-60 μg of protein with appropriate amounts of l-125 labeled ligand and competitors in a total volume of 0.2 ml of the assay buffer. After an incubation period of 15 min at 37° C. (with stirring), the samples were rapidly filtered in the cell harvester (Brandel M-24R) under vacuum through Whatman GF/B glass fiber filters pretreated with 0.2% protamine base and washed with 3×5 ml of cold (4° C.) 50 mM Tris-HCl buffer, pH 7.4. […] The filters were counted in a gamma counter (Beckman 5500) at an efficiency of 70%.

[2] = target: T1, dopamine D-2 receptor; experiment: Competition binding using [^125 I]IBF, rat striatal membranes
Description: *0.15-0.30 nM [^125 I]IBF was incubated in the presence of the
indicated compounds in 7-11 concentrations and of membrane preparation
from rat striatum. Each value represents the mean ± SEM of three to
as §1, §2

[3] = Biodistribution in rats after IV injection; format: in vivo, rat
Description: Male Sprague Dawley rats (225-300 g), which were allowed free access to food and water, were used for in vivo biodistribution study. While under halothane anesthesia, 0.2 ml of a saline solution containing [^125 l]IBF, 21, (8-10 μCi) was injected directly into the femoral vein, and the rats were sacrificed at various time points postinjection by cardiac excision under halothane anesthesia. The organs of interest were removed, weighed and the radioactivity was counted using a Beckman gamma automatic counter (Model 4000). The percent dose per organ was calculated by a comparison of the tissue counts to suitably diluted aliquots of the injected material. Total activities of blood and muscle were calculated assuming that they are 7% and 40% of total body weight, respectively.

[4] = test system: CNS D-2 dopamine receptors; experiment: Regional brain distribution in rats after iv injection; format: in vivo; details: rat; for striatum/cerebellum (ST/CB) ratio: % dose/gram ratio
Text: FIG. 2 is a bar graph showing ratios (based on % dose/gram) of regional cerebral uptake of [^125 I]IBF (CX: cortex, ST: striatum, CB: cerebellum, HP: hippocampus).
(§3) (See FIG. 2). This type of profound increase in target to nontarget ratio versus time was not observed for the other two regions (hippocampus and cortex) (FIG. 2). […] The data have been further confirmed by an in vivo imaging study of a monkey.
Regional brain distribution in rats was obtained after an iv injection of [^125 l]IBF, 21. By dissecting, weighing and counting samples from different brain regions (cortex, striatum, hippocampus and cerebellum), % dose/gram of samples was calculated by comparing the sample counts with the counts of the diluted initial dose. The uptake ratio of each region was obtained by dividing % dose/gram of each region with that ot the cerebellum.

[5] = test system: CNS D-2 dopamine receptors; experiment: Ex vivo autoradiography (preliminary); format: in vivo; details: preliminary study
Text: as §3

[6] = test system: CNS D-2 dopamine receptors; experiment: In vivo planar imaging of a monkey; details: planar images
Text: as §3

[7] = 2 min, IV, average of 3 rats ± SD
[8] = 15 min, IV, average of 3 rats ± SD
[9] = 30 min, IV, average of 3 rats ± SD
[10] = 60 min, IV, average of 3 rats ± SD
[11] = 120 min, IV, average of 3 rats ± SD

T1 sequence (P61169 whole entry): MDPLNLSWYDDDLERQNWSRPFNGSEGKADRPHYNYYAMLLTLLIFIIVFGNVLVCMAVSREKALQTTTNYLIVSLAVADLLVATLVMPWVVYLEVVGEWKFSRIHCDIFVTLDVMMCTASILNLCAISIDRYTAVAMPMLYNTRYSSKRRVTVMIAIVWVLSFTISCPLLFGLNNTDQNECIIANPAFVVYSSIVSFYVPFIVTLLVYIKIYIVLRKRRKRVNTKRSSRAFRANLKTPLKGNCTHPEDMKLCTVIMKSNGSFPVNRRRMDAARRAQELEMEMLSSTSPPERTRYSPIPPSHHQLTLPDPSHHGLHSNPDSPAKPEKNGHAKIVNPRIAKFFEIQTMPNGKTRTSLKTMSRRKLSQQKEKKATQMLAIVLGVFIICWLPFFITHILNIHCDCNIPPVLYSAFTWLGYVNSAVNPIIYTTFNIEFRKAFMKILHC

CCN1CCC[C@H]1CNC(=O)c1cc([125I])cc2c1OCC2 [[^125 I]IBF]
specific binding saturability [1]: saturable
Kd ([1]; rat striatal homogenate in vitro, read-out: Kd, specific binding): 0.106 ± 0.015 nM
nonspecific binding ([1]; saturation curve, FIG. 1): extremely low nonspecific binding
nonspecific binding at Kd ([1]; saturation curve, FIG. 1): 5%
selectivity of binding to the dopamine D-2 receptor [2]: binds specifically and selectively to the dopamine D-2 receptor
Blood uptake [3, 7]: 3.50 ± 0.22 % Dose/Organ
Brain uptake [3, 7]: 0.98 ± 0.15 % Dose/Organ and 0.98 % Dose/Organ
Brain/Blood ratio [3, 7]: 2.64 ± 0.32 % dose/gram ratio
Heart uptake [3, 7]: 0.81 ± 0.25 % Dose/Organ
Kidney uptake [3, 7]: 7.58 ± 0.66 % Dose/Organ
Liver uptake [3, 7]: 16.32 ± 4.00 % Dose/Organ
Lung uptake [3, 7]: 6.14 ± 1.19 % Dose/Organ and 6.14 % Dose/Organ
Muscle uptake [3, 7]: 11.25 ± 2.62 % Dose/Organ
Skin uptake [3, 7]: 8.54 ± 1.21 % Dose/Organ
Spleen uptake [3, 7]: 0.96 ± 0.08 % Dose/Organ
Thyroid uptake [3, 7]: 0.06 ± 0.02 % Dose/Organ
Blood uptake [3, 8]: 1.80 ± 0.31 % Dose/Organ
Brain uptake [3, 8]: 0.54 ± 0.06 % Dose/Organ
Brain/Blood ratio [3, 8]: 3.01 ± 0.91 % dose/gram ratio
Heart uptake [3, 8]: 0.20 ± 0.03 % Dose/Organ
Kidney uptake [3, 8]: 2.92 ± 0.30 % Dose/Organ
Liver uptake [3, 8]: 16.16 ± 7.54 % Dose/Organ
Lung uptake [3, 8]: 1.85 ± 0.33 % Dose/Organ
Muscle uptake [3, 8]: 14.36 ± 1.29 % Dose/Organ
Skin uptake [3, 8]: 8.46 ± 0.56 % Dose/Organ
Spleen uptake [3, 8]: 0.58 ± 0.08 % Dose/Organ
Thyroid uptake [3, 8]: 0.03 ± 0.004 % Dose/Organ
Blood uptake [3, 9]: 1.26 ± 0.10 % Dose/Organ
Brain uptake [3, 9]: 0.30 ± 0.05 % Dose/Organ
Brain/Blood ratio [3, 9]: 2.26 ± 0.33 % dose/gram ratio
Heart uptake [3, 9]: 0.11 ± 0.01 % Dose/Organ
Kidney uptake [3, 9]: 1.58 ± 0.46 % Dose/Organ
Liver uptake [3, 9]: 11.59 ± 0.93 % Dose/Organ
Lung uptake [3, 9]: 0.82 ± 0.08 % Dose/Organ and 0.82 % Dose/Organ
Muscle uptake [3, 9]: 9.00 ± 1.66 % Dose/Organ
Skin uptake [3, 9]: 5.34 ± 0.17 % Dose/Organ
Spleen uptake [3, 9]: 0.31 ± 0.03 % Dose/Organ
Thyroid uptake [3, 9]: 0.02 ± 0.004 % Dose/Organ
Blood uptake [3, 10]: 0.98 ± 0.11 % Dose/Organ
Brain uptake [3, 10]: 0.17 ± 0.02 % Dose/Organ and 0.17 % Dose/Organ
Brain/Blood ratio [3, 10]: 1.90 ± 0.29 % dose/gram ratio
Heart uptake [3, 10]: 0.05 ± 0.002 % Dose/Organ
Kidney uptake [3, 10]: 1.01 ± 0.01 % Dose/Organ
Liver uptake [3, 10]: 9.84 ± 1.50 % Dose/Organ
Lung uptake [3, 10]: 0.37 ± 0.10 % Dose/Organ
Muscle uptake [3, 10]: 4.97 ± 0.56 % Dose/Organ
Skin uptake [3, 10]: 2.38 ± 0.17 % Dose/Organ
Spleen uptake [3, 10]: 0.09 ± 0.01 % Dose/Organ
Thyroid uptake [3, 10]: 0.02 ± 0.01 % Dose/Organ and 0.02 % Dose/Organ
Blood uptake [3, 11]: 0.53 ± 0.02 % Dose/Organ
Brain uptake [3, 11]: 0.07 ± 0.006 % Dose/Organ
Brain/Blood ratio [3, 11]: 1.53 ± 0.12 % dose/gram ratio
Heart uptake [3, 11]: 0.02 ± 0.001 % Dose/Organ
Kidney uptake [3, 11]: 0.68 ± 0.32 % Dose/Organ
Liver uptake [3, 11]: 3.95 ± 0.31 % Dose/Organ
Muscle uptake [3, 11]: 2.30 ± 0.22 % Dose/Organ
Skin uptake [3, 11]: 1.18 ± 0.18 % Dose/Organ
Spleen uptake [3, 11]: 0.03 ± 0.007 % Dose/Organ
Thyroid uptake [3, 11]: 0.08 ± 0.03 % Dose/Organ
in vivo deiodination ([3]; from thyroid uptake at one hour postinjection): little or no in vivo deiodination
in vivo stability compared with [^125 I]IBZM ([3]; rat, in vivo): better in vivo stability
lung clearance ([3]; rats): rapidly cleared
Liver uptake ([3]; rats, first hour to two hours postinjection): remained high throughout the first hour and gradually declined at two hours postinjection
Brain uptake ([3]; rats, intravenous): good brain uptake in rats
striatum/cerebellum (ST/CB) ratio ([4]; 2 min): 2.0
striatum/cerebellum (ST/CB) ratio ([4]; 15 min): 3.8
striatum/cerebellum (ST/CB) ratio ([4]; 30 min): 6.2
striatum/cerebellum (ST/CB) ratio ([4]; 60 min): 18
striatum/cerebellum (ST/CB) ratio ([4]; 120 min): 48
increase in target to nontarget ratio versus time, hippocampus and cortex ([4]; hippocampus and cortex): not observed
retention in the striatum [4]: prolonged retention
striatal uptake and cerebellar activity [5]: high striatal uptake and low cerebellar activity
uptake and retention in the basal ganglia [6]: high uptake and retention in the basal ganglia
